According to US7569547B2, “Inhibiting furin with polybasic peptides” (Board of Supervisors of Louisiana State University and …, priority 2001, dated 2009):

Key:
Format in all cases: biochemical
[1] = biological target: T1, furin (Mus musculus, UniProt P23188); experiment: Cleavage of polyarginines by furin, HPLC analysis
T1 construct: truncated N-terminally to the transmembrane domain at His^711 using PCR; myc (C, cleaved yes); hexa-His (C, cleaved yes); made in house; host or cells: DG44 CHO cells, conditioned medium
T1 sequence (P23188 108-714 limits assumed): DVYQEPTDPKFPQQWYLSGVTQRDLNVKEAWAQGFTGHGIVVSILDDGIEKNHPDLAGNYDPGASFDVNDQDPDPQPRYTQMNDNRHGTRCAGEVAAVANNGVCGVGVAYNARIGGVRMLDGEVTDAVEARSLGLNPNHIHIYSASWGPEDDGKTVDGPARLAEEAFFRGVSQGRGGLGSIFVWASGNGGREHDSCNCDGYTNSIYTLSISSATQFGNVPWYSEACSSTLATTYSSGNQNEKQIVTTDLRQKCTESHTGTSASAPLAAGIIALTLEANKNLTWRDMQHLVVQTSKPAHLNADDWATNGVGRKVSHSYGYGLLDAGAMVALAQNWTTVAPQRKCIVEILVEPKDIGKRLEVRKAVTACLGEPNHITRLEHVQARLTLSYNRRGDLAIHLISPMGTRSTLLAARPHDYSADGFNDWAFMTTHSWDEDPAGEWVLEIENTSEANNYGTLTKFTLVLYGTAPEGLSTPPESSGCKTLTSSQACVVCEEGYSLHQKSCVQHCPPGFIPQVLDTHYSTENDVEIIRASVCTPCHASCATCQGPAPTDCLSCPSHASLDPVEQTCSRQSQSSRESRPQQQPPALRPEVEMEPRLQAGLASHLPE
Experimental: Absorbance was monitored at 214 nm. Cleavage products were identified by comparison to polyarginine standards.
Cleavage of Nona-L-arginine (SEQ ID NO 13) and Hexa-L-arginine (SEQ ID NO 14) by Furin. FIGS. 10(a) through (h) depict the cleavage of nona-L-arginine (SEQ ID NO 13) and hexa-L-arginine (SEQ ID NO 14) by furin. Furin (FIGS. (10(b), (c), (d), (e), and (g)) or buffer (FIGS. 10(f) and (h) was incubated with nona-L-arginine (SEQ ID NO 13) (FIGS. 10(b), (c), (d), (e), and (f) or hexa-L-arginine (SEQ ID NO 14) (FIGS. (10(g) and (h) at 37° C. for 0 min (FIG. (10(b)), 40 min (FIG. 10(c)), 6 h (FIG. 10(d)), or 24 h (FIGS. 10(e), (f), (g), and (h) prior to separation by HPLC as described in the experimental procedures. In FIG. 10(a) the simple separation of a standard mixture polyarginines (without enzyme) is shown; the number of residues per poly-L-arginine is indicated by the positions of the arrows at the tops of FIGS. 10(a) and (e).

[2] = biological target: T2, recombinant mouse furin (Mus musculus, UniProt P23188); experiment: Furin enzyme assay, hydrolysis of pERTKR-MCA at pH 7.0; conditions: for type of inhibition of furin (Lineweaver-Burk plots): furin 30 nM, 0, 20 or 40 μM hexapeptide, polyarginines forty-fold lower
T2 construct: truncated N-terminally to the transmembrane domain at His^711 using PCR; myc (C, cleaved yes); hexa-His (C, cleaved yes); made in house; host or cells: DG44 CHO cells, conditioned medium
T2 sequence (P23188 108-714 limits assumed): as above
Excerpt: Recombinant convertase preparation. The mouse furin clone was a kind gift from K. Nakayama (Fukuoka University School of Medicine, Fukuoka, Japan). The mouse furin cDNA was truncated N-terminally to the transmembrane domain at His^711 using PCR. This PCR product was then subcloned into pcDNA3.1 (−) myc-His (Invitrogen) at the Nhe1 and Xba1 restriction sites. Dihydrofolate-reductase-negative DG44 Chinese Hamster Ovary (CHO) cells (L. Chasin, Columbia University, New York, N.Y.) were transfected using Lipofectin (Life Technologies), and colonies were selected at 37° C. in 5% CO2 in α-MEM (lacking nucleosides) containing 10% well-dialyzed fetal bovine serum (Life Technologies). Conditioned media from colonies were screened using an enzyme assay (see below), and a high-expressing clone was selected. Overexpression of furin was achieved by increasing the methotrexate concentration from 5 nM to 50 μM in five- to ten-fold steps as described in I. Lindberg et al., Methods Neurosci., vol. 23, pp. 94-108 (1995). The amplified lines were tested for increased furin expression by enzyme assay. Once the 50 μM methotrexate level had been reached, cells were split at ratios of 1:6 twice a week. 100 mL of conditioned media (OptiMEM, Life Technologies) containing 100 μg/mL aprotinin (Miles Laboratories, Kankakee, Ill.) was collected from confluent roller bottles every 24 h. The medium was then centrifuged at low speed to remove cells, and the supernatant was stored at −80° C. until use.
Purification of furin: Conditioned medium was thawed, pooled, and diluted 1:3.5 with buffer A (20 mM HEPES, 0.1% Brij 35, 5 mM CaCl2, pH 7.4), and pumped at 40 mL/min through a Sartorius D100 anion exchange membrane. The membrane was washed with 40 mL of buffer A, followed by 40 mL of buffer A containing 50 mM NaCl, and finally by 40 mL of buffer A containing 200 mM NaCl. The fraction eluting with 200 mM NaCl was diluted 1:4 with buffer A and applied to a 1 mL Pharmacia Mono Q HR5/5 anion exchange column at a flow rate of 1 mL/min. Following a 10 mL wash with buffer A, furin was eluted by a linear increase of 0 to 500 mM NaCl in buffer A over 30 mL; and 2 mL fractions were collected. Fractions containing peak activity were pooled, and 200 μL aliquots were subjected to gel permeation chromatography using a Pharmacia Superose 12 column at a flow rate of 0.5 mL/min of buffer A containing 200 mM NaCl. Fractions were assayed for activity as described below; protein content was determined using the Bradford method. All purification steps were performed at 4° C.
(§1) Enzyme Assays and Hexapeptide Library Screening. Enzyme assays for PC1 and PC2 were performed at pH 5.0 using pERTKR-MCA (Peptides International Inc., Louisville, Ky.) as described in E. Apletalina et al., J. Biol. Chem., vol. 273, pp. 26589-26595 (1998). The assay for furin was performed using the same substrate at pH 7.0 in 100 mM HEPES, 5 mM CaCl2, 0.1% Brij 35. All assays were performed at 37° C. in a 96 well fluorometer (Labsystems) at an excitation wavelength of 380 nm with emission monitored at a wavelength of 460 nm. The total volume was 50 μL. Unless otherwise stated, the final substrate concentration for all assays was 200 μM. When used in a particular experiment, the inhibitory peptides were pre-incubated with enzyme for 30 min at room temperature prior to addition of substrate. All assays were performed in duplicate or triplicate.

[3] = biological target: T3, PC1 (Mus musculus, UniProt P63239); experiment: biochemical
T3 construct: made in house
T3 sequence (P63239 111-753): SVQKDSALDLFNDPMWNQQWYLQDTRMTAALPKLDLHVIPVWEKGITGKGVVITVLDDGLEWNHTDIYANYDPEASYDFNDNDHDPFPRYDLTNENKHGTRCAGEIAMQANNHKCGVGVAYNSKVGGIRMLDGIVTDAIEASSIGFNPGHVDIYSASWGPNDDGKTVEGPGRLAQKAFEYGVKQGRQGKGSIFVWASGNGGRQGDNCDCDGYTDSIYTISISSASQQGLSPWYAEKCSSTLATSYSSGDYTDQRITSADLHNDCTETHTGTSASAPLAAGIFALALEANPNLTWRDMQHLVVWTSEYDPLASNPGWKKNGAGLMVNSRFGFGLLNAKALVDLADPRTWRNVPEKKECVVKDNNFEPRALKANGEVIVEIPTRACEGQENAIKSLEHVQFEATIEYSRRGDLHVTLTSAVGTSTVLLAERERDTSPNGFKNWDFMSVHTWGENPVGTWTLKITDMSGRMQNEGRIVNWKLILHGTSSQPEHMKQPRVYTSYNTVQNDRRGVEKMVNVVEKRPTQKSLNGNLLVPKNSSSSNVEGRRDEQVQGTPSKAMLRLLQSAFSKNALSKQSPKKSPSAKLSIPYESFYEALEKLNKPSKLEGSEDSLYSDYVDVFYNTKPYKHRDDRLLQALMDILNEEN
Experimental: The proprotein convertases PC1 and PC2 were prepared by ion exchange chromatography as described in G. Frenette et al., Biochim. Biophys. Acta., vol. 1334, pp. 109-115 (1997).
as §1

N=C(N)NCCC[C@@H](NC(=O)[C@H](N)CCCN=C(N)N)C(=O)N[C@H](CCCNC(=N)N)C(=O)N[C@H](CCCNC(=N)N)C(=O)N[C@H](CCCNC(=N)N)C(=O)N[C@H](CCCN=C(N)N)C(=O)O [Hexa-D-arginine]
cleavage by furin ([1]; after 24 hours incubation): essentially no cleavage
type of inhibition of furin (Lineweaver-Burk plots) [2]: strictly competitive-type inhibition
Ki [3]: 13 ± 0.25 µM

N=C(N)NCCC[C@H](NC(=O)[C@H](CCCNC(=N)N)NC(=O)[C@H](CCCNC(=N)N)NC(=O)[C@H](CCCNC(=N)N)NC(=O)[C@H](CCCNC(=N)N)NC(=O)[C@@H](N)CCCNC(=N)N)C(=O)O [Hexa-L-arginine]
cleavage by furin ([1]; after 24 hours incubation): partial digestion
cleavage by furin ([1]; after six hours incubation): essentially no cleavage
type of inhibition of furin (Lineweaver-Burk plots) [2]: strictly competitive-type inhibition
Ki [3]: 3.9 ± 0.62 µM

N=C(N)NCCC[C@H](NC(=O)[C@H](CCCNC(=N)N)NC(=O)[C@H](CCCNC(=N)N)NC(=O)[C@H](CCCNC(=N)N)NC(=O)[C@H](CCCNC(=N)N)NC(=O)[C@H](CCCNC(=N)N)NC(=O)[C@H](CCCNC(=N)N)NC(=O)[C@H](CCCNC(=N)N)NC(=O)[C@@H](N)CCCNC(=N)N)C(=O)O [Nona-L-arginine]
time at which cleavage by furin was first observed ([1]; 200 μM peptide, 1.7 μM furin, 37° C.): ~40 min
original peptide remaining ([1]; after four hours with furin, 37° C.): essentially none
Ki [2]: 0.042 µM
type of inhibition of furin (Lineweaver-Burk plots) [2]: strictly competitive-type inhibition
Ki [3]: 12 ± 2.5 µM
